According to patent US20230127703A1, “THERAPEUTIC AGENT FOR CORONAVIRUS INFECTION” (FUJIFILM Toyama Chemical Co., Ltd., priority 2020, published 2023):

Test system: SARS-CoV-2
[1] = improvement of body temperature, SpO2, chest imaging followed by negative conversion of SARS-CoV-2, N = 107

## NC(=O)c1nc(F)cnc1O [Compound A, 6-fluoro-3-hydroxy-2-pyrazinecarboxamide]
Compound A group (107 patients) vs control group (49 patients)
  median time to improvement compared with control group: shorter by approximately three days
Compound A group vs control group
  treatment effect compared with control group: statistically significantly higher treatment effect
Compound A group, 107 patients, up to 14 days of treatment
  clinical safety: no clinical safety concerns were identified
[1]
  Time to improvement in 25% of patients (days) (median): 7.7 days
  Time to improvement in 50% of patients (days) (median): 11.8 days
  Time to improvement in 75% of patients (days) (median): 15.6 days
Number of patients of N = 107, standard of care + 1,800 mg BID Day 1, 800 mg BID up to 13 days, oral, mITT
  Patients with improvement: 82
